This note sets out measurements from article PMC5711939, “The rumen microbiome: an underexplored resource for novel antimicrobial discovery” (NPJ Biofilms and Microbiomes, 2017).

One data set has as its system P. aeruginosa (CF). Description: microbe, parasite or virus in culture. The conditions noted are these: Pseudomonas aeruginosa, cation adjusted MHB, 18–24 h. The method, then: (§1) Peptides dissolved in sterile distilled water and comparator antibiotics dissolved in the appropriate solvents[38] were added to sterile U-bottom polypropylene 96-well microplates at desired concentrations.

The next data set concerns C. coli. The method, then: as §1
For another data set, the system named is C. jejuni. Description: microbe, parasite or virus in culture. On the procedure: as §1
Data set [1] relates to List. monocytogenes NCTC 11994. As to the kind of experiment: microbe, parasite or virus in culture. The conditions noted are these: NCTC 11994. The method, then: as §1
The test system of another data set is Ent. faecalis JH2-2. As to the kind of experiment: microbe, parasite or virus in culture. On the procedure:
as §1

In another data set the test system is Sal. typhimurium SL1344. Description: microbe, parasite or virus in culture. On the procedure:
as §1

The test system of the next data set is E. coli K12. As to the kind of experiment: MIC, broth microdilution. The format is cell-based, Escherichia coli. As to conditions: strain K12; cation adjusted MHB, 18–24 h. On the procedure: as §1
A general note: Dilution methods test growth across graded concentrations, often in twofold steps.

Another data set has as its system S. aureus. Description: microbe, parasite or virus in culture. The method, then:
as §1

A further data set has as its system K. pneumoniae. Description: microbe, parasite or virus in culture. The method, then: as §1
The test system of the next data set is HUVEC and HepG2 cells. The conditions noted are these: HUVEC and HepG2 cells (cell line not given). The method, then:
Cytotoxic activity of the identified peptides was determined using HUVEC and HEPG2 cells as described previously.[41],[42] […] Significant responses were defined when observed cell growth was ≤50% and tube length was ≤70% using the proliferation and tube formation assays respectively. Permeabilization of eukaryotic membrane by Lynronne-1, Lynronne-2 and Lynronne-3 was also investigated using HepG2 cells as described previously.[43]

The mark [2] stands for this setting: strain RN4220, Sensitive, cation adjusted MHB, 18–24 h.

In brackets after ≈: the same amount, converted by molar mass. Where two headings read alike, the source gives them in different places. Ends that are not written are not given here.

Take `C[C@H]1COc2c(N3CCN(C)CC3)c(F)cc3c(=O)c(C(=O)O)cn1c23` [Lev, Levofloxacin, reference compound]: the figures for the MIC against P. aeruginosa (CF) (strain AMT0060), against P. aeruginosa (CF) (strain C3719) and in the data set on P. aeruginosa (CF) (strain LESB58) were 0.06 µg/mL (≈ 0.166 µM), less than 0.03 µg/mL and 0.06 µg/mL (≈ 0.166 µM), respectively.

Regarding QVRWWGRYWRRKWATCR-NH2 [P12], the MIC in the data set with C. coli is more than 128 µg/mL; with C. jejuni it was more than 128 µg/mL; in data set [1] it was 128 µg/mL; against Ent. faecalis JH2-2, 256 µg/mL; in the data set on Sal. typhimurium SL1344 it was 256 µg/mL.

For the compound TMSLRFWRWKVR-NH2 [P5], the MIC with C. coli came out at 128 µg/mL; against E. coli K12 it was 64 µg/mL; against C. jejuni, 128 µg/mL; in [1], 64 µg/mL; in the data set with S. aureus (setting [2]), 64 µg/mL; against Ent. faecalis JH2-2, 64 µg/mL. Further, in the data set with Sal. typhimurium SL1344, the MIC was determined as 64 µg/mL.

Regarding RSITRPVLVRRRWRVRPVF-NH2 [P10], the MIC was more than 128 µg/mL against C. coli; 256 µg/mL in the data set with E. coli K12; more than 128 µg/mL against C. jejuni; 512 µg/mL in data set [1]; more than 128 µg/mL in the data set with S. aureus; 256 µg/mL against S. aureus (setting [2]). Besides, the results for the MIC in the data set with Ent. faecalis JH2-2, with K. pneumoniae and against Sal. typhimurium SL1344 were 512 µg/mL, more than 128 µg/mL and 64 µg/mL, respectively.

In the case of VLHTGYRKFLHRSKRFFHLR-NH2 [P4], the MIC against C. coli was more than 128 µg/mL; in the data set on E. coli K12, 64 µg/mL; against C. jejuni, more than 128 µg/mL; in [1], 64 µg/mL; against Ent. faecalis JH2-2 it was 64 µg/mL; in the data set on Sal. typhimurium SL1344, 32 µg/mL.

In turn, `C/C(=C\C(=O)OCCCCCCCCC(=O)O)C[C@@H]1OC[C@H](C[C@@H]2O[C@H]2[C@@H](C)[C@H](C)O)[C@@H](O)[C@H]1O` [Mup, Mupirocin, reference compound] came in with an MIC with S. aureus (Staphylococcus aureus, BAA1717|MRSA|USA300, strain USA300 BAA-1717, MRSA, cation adjusted MHB, 18–24 h) of 0.12 µg/mL (≈ 0.24 µM).

As for “SIKILKIYFIQGKRHWSF-NH2 (C-terminus assumed) [P11]”, the MIC against C. coli was more than 128 µg/mL; with C. jejuni it was more than 128 µg/mL; in data set [1], 256 µg/mL; against Ent. faecalis JH2-2 it was 256 µg/mL; against Sal. typhimurium SL1344, 512 µg/mL.

In the case of GTAWRWHYRARS-NH2 [P15a], the MIC against C. coli was 128 µg/mL; against C. jejuni it was 128 µg/mL; against S. aureus it was more than 128 µg/mL; against K. pneumoniae it was more than 128 µg/mL.

On to AWRWKAFRNCWRVRSSSL-NH2 [P8], for which the MIC against C. coli is more than 128 µg/mL; against E. coli K12 it was 64 µg/mL; against C. jejuni it was more than 128 µg/mL; in [1], 64 µg/mL; in the data set with S. aureus (setting [2]) it was 64 µg/mL; against Ent. faecalis JH2-2, 64 µg/mL. Moreover, the MIC with Sal. typhimurium SL1344 turned out to be 32 µg/mL.

Regarding `CN[C@@H]1C[C@H]2O[C@@](C)([C@@H]1OC)n1c3ccccc3c3c4c(c5c6ccccc6n2c5c31)C(=O)NC4` [Staurosporine, reference compound], the “50% lethal concentration (LC50)” value with HUVEC and HepG2 cells came to 0.014 µg/mL.

As to KFVRLKIYCRDKNKGRGISF-NH2 [P15s], the MIC is 128 µg/mL against C. coli; 64 µg/mL against E. coli K12; 128 µg/mL in the data set with C. jejuni; 128 µg/mL in data set [1]; 128 µg/mL against Ent. faecalis JH2-2; 128 µg/mL in the data set with Sal. typhimurium SL1344.
